# Measurements as given in patent US20200121665A1, “PPAR GAMMA MODULATORS FOR TREATING CYSTIC DISEASES” (Indiana University Research and Technology Corporation, priority 2013, published 2020).
# Where two headings read alike, the source gives them in different places.
# Columns and labels:
# PCK rat [1] = settings: for Statistics (a): KW % BW, significance compared to control / Statistics (a): Kidney Weight (KW), significance compared to control / KW % BW / Kidney Weight (KW) / LW % BW / Liver % Fibrocystic / Liver Weight (LW): 24 weeks
# Excerpt: PCK rat animal model of slowly-progressing PKD. The PCK rat is an animal model that has a orthologous genetic mutation to the human autosomal recessive polycystic kidney disease (ARPKD), but has the phenotypic characteristics of human ADPKD, including renal and liver fibrocystic disease. The Pck gene of the rat is an orthologue to the PKHD-1 gene responsible for ARPKD. The animal model develops both kidney and liver fibrocystic diseases, and is slow progressing. […] Only females are used in the study.
# Briefly, after weaning, test animals are fed a diet containing increasing doses of a PPARγ modulator, normalized to body weight, and compared to untreated control fed normal diet. A hematocrit is measured to assess the presence or absence of fluid retention. […] The untreated control group fed the same diet without any PPARγ modulators.
# Animals are sacrificed and total body weight is recorded. Total kidney weight is recorded, total liver weight is recorded, and heart weight is recorded. Blood is collected via cardiac puncture, and serum and plasma samples are collected. The liver and kidney were embedded in paraffin and transversely sectioned and stained with hematoxylin, and eosin. The percent kidney weight to body weight was calculated. After histology on the kidney, renal cyst volume was determined through point count stereology methods. From the total liver weight, the percent liver to body weight was calculated. Following histology and picrosiruis red staining, the percent fibrosis can be determined through point count stereology methods. Heart weight is determined and the percent heart weight to body weight is calculated to assess heart disease, such as due to fluid retention, a reported side effect associated with PPARγ agonist treatment. Hearts are preserved in 4% paraformaldehyde. Liver enzymes, glucose levels, and ion levels are evaluated using the blood and urine samples.
# PCK rat [2] = settings: 14 week study, 20 mg/kg BW; cited from earlier work
smiles,measurement,setting,value
"CN(CCOc1ccc(CC2SC(=O)NC2=O)cc1)c1ccccn1 (centres unmarked) [Rosiglitazone, rosiglitazone]","Statistics (a): KW % BW, significance compared to control",PCK rat [1]; 0.04 mg/kg BW diet,S
same,"Statistics (a): Kidney Weight (KW), significance compared to control",PCK rat [1]; 0.04 mg/kg BW diet,S
same,KW % BW,"PCK rat [1]; 0.04 mg/kg BW diet, n = 8",0.95 ± 0.15%
same,Kidney Weight (KW),"PCK rat [1]; 0.04 mg/kg BW diet, n = 8",3.68 ± 0.14 g
same,LW % BW,"PCK rat [1]; 0.04 mg/kg BW diet, n = 8",7.11 ± 0.27%
same,Liver % Fibrocystic,"PCK rat [1]; 0.04 mg/kg BW diet, n = 8",35.36 ± 3.74%
same,Liver Weight (LW),"PCK rat [1]; 0.04 mg/kg BW diet, n = 8",24.23 ± 0.10 g
same,KW % BW,"PCK rat [1]; 0.4 mg/kg BW diet, n = 8",1.27 ± 0.08%
same,Kidney Weight (KW),"PCK rat [1]; 0.4 mg/kg BW diet, n = 8",4.27 ± 0.22 g
same,LW % BW,"PCK rat [1]; 0.4 mg/kg BW diet, n = 8",6.50 ± 0.57%
same,Liver % Fibrocystic,"PCK rat [1]; 0.4 mg/kg BW diet, n = 8",36.81 ± 3.61%
same,Liver Weight (LW),"PCK rat [1]; 0.4 mg/kg BW diet, n = 8",22.05 ± 2.07 g
same,"Statistics (a): KW % BW, significance compared to control",PCK rat [1]; 4.0 mg/kg BW diet,S
same,"Statistics (a): Kidney Weight (KW), significance compared to control",PCK rat [1]; 4.0 mg/kg BW diet,S
same,KW % BW,"PCK rat [1]; 4.0 mg/kg BW diet, n = 3",0.94 ± 0.06%
same,Kidney Weight (KW),"PCK rat [1]; 4.0 mg/kg BW diet, n = 3",3.56 ± 0.26 g
same,LW % BW,"PCK rat [1]; 4.0 mg/kg BW diet, n = 3",5.97 ± 1.38%
same,Liver % Fibrocystic,"PCK rat [1]; 4.0 mg/kg BW diet, n = 3",36.17 ± 0.38%
same,Liver Weight (LW),"PCK rat [1]; 4.0 mg/kg BW diet, n = 3",22.66 ± 5.39 g
same,serum electrolytes,PCK rat [1]; at any concentration,not altered
same,test animals died or had to be sacrificed during treatment due to cholangitis,PCK rat [1]; high dose group,9/12
same,glucose,"PCK rat [1]; rat, in vivo",not observed
same,hematocrits vs control animals,"PCK rat [1]; rat, in vivo",not different from the control animals
same,side effects (increased body weight or cholangitis),"PCK rat [1]; rat, in vivo",no detected side effects
CCc1ccc(CCOc2ccc(CC3SC(=O)NC3=O)cc2)nc1 (centres unmarked) [pioglitazone],kidney function by serum analysis,PCK rat [2],well-preserved kidney function
same,liver enzymes by serum analysis,PCK rat [2],increased
